Key:
Type in all cases: cell-based, mouse
synovial fibroblasts = test: Cytokine mRNA expression by synovial fibroblasts
Excerpt: FIGS. 34A-34I depicts GM-CSF mediates proinflammatory cytokine expression by myeloid cells and synovial fibroblasts in arthritic mice. Synovial tissues were dissected from wild-type AIA mice and dissociated into single cell suspensions. (FIG. 34A) Flow cytometry plots depicting the fractionation into different populations based on differential expression of surface markers. (FIG. 34B) The mRNA expression of several proinflammatory cytokines in sorted CD45^+ TCRβ^+ (TCRβ^+ in short), CD45^+ TCRβ^−CD11c^−CD11b^+ (CD11b^+) and CD45^+ TCRβ^−CD11c^+ (CD11c^+) populations was measured by qPCR. The qPCR data were normalized to GAPDH. (FIG. 34C) The mRNA expression of IL-6, IL-1β and TNF-α in sorted Ly6C^hiLy6G^− and Ly6C^loLy6G^hi populations (gated on CD11b^+ cells). The qPCR data were normalized to GAPDH. (FIGS. 34D and 34E) The mRNA expression of IL-6 and IL-1β by BMDMs (FIG. 34D) and BMDCs (FIG. 34E) upon stimulation with 20 ng/ml GM-CSF for 1 h. The qPCR data were normalized to GAPDH. (FIGS. 34F and 34G) BMDMs (FIG. 34F) and BMDCs (FIG. 34G) were stimulated with GM-CSF at indicated concentrations (n=3 per group) for 18 h. The secretion of IL-6 in the culture supernatant was quantified by ELISA. […] The secretion of IL-1β in the culture supernatant was quantified by ELISA. […] The mRNA expression of IL-1β was measured by qPCR. […]

BMDMs = test: Cytokine expression by bone marrow-derived macrophages (BMDMs)
Excerpt: (§1) FIGS. 34A-34I depicts GM-CSF mediates proinflammatory cytokine expression by myeloid cells and synovial fibroblasts in arthritic mice. Synovial tissues were dissected from wild-type AIA mice and dissociated into single cell suspensions. (FIG. 34A) Flow cytometry plots depicting the fractionation into different populations based on differential expression of surface markers. (FIG. 34B) The mRNA expression of several proinflammatory cytokines in sorted CD45^+ TCRβ^+ (TCRβ^+ in short), CD45^+ TCRβ^−CD11c^−CD11b^+ (CD11b^+) and CD45^+ TCRβ^−CD11c^+ (CD11c^+) populations was measured by qPCR. The qPCR data were normalized to GAPDH. (FIG. 34C) The mRNA expression of IL-6, IL-1β and TNF-α in sorted Ly6C^hiLy6G^− and Ly6C^loLy6G^hi populations (gated on CD11b^+ cells). The qPCR data were normalized to GAPDH. (FIGS. 34D and 34E) The mRNA expression of IL-6 and IL-1β by BMDMs (FIG. 34D) and BMDCs (FIG. 34E) upon stimulation with 20 ng/ml GM-CSF for 1 h. The qPCR data were normalized to GAPDH. (FIGS. 34F and 34G) BMDMs (FIG. 34F) and BMDCs (FIG. 34G) were stimulated with GM-CSF at indicated concentrations (n=3 per group) for 18 h. The secretion of IL-6 in the culture supernatant was quantified by ELISA. (FIG. 34H) BMDMs were primed with LPS ([…]) in the presence of GM-CSF at indicated concentrations (n=3 per group) for 6 h, followed by stimulation with ATP (5 mM) for 30 min. The secretion of IL-1β in the culture supernatant was quantified by ELISA. (FIG. 34I) Cells were cultured in DMEM medium supplemented with 10% FBS for over 20 days with more than 5 passages to obtain synovial fibroblasts. Synovial fibroblasts were stimulated with GM-CSF (20 ng/ml) for 1 h and harvested for RNA extraction. The mRNA expression of IL-1β was measured by qPCR. The qPCR data were normalized to GAPDH. All data shown represent two independent experiments. *p<0.05, **p<0.01.
To test the regulatory role of GM-CSF in the expression of IL-6 and IL-1β, bone marrow-derived macrophages (BMDMs) and bone marrow-derived dendritic cells (BMDCs) were cultured, and stimulated with GM-CSF. […] To induce mature IL-1β secretion, BMDMs were primed with LPS for 6 h during which different concentrations of GM-CSF was added, followed by ATP stimulation. […] An inducible effect of GM-CSF on TNF-α expression was not observed in BMDMs, BMDCs or synovial fibroblasts (data not shown). Given the functional importance of IL-6 and IL-1β in arthritis development (Choy and Panayi, 2001), TH-cell-secreted GM-CSF may mediate synovial inflammation also via eliciting the expression of IL-6 and IL-1β from myeloid cells and synovial fibroblasts.

BMDCs = test: Cytokine expression by bone marrow-derived dendritic cells (BMDCs)
Excerpt: as §1
To test the regulatory role of GM-CSF in the expression of IL-6 and IL-1β, bone marrow-derived macrophages (BMDMs) and bone marrow-derived dendritic cells (BMDCs) were cultured, and stimulated with GM-CSF. […]

neutrophils [1] = test: Neutrophil apoptosis, Annexin V and PI co-staining; details: 20 ng/ml, 24 h
Experimental: (§2) FIGS. 33A-33C depicts GM-CSF enhances neutrophil transmigration and delay apoptosis in vitro. (FIG. 33A) Percentages of migrated neutrophils with or without GM-CSF as chemoattractant in transmigration assay at 3 h post start. (FIG. 33B) Microscopic images of CFSE-labeled neutrophils in the bottom of the lower chamber in transmigration assay. (FIG. 33C) Sorted neutrophils were cultured in vitro with or without GM-CSF (20 ng/ml) for 24 h. Neutrophils undergoing apoptosis were examined by Annexin V and propidium iodide (PI) co-staining. A representative flow cytometry of three repeats was shown. *p<0.05.
(§3) Neutrophils are recruited during inflammation, in which complex interactions between neutrophils and vascular endothelial cells direct neutrophil adhesion and transmigration from circulation to inflamed tissues (Kolaczkowska and Kubes, 2013). […] Effective neutrophil apoptosis is crucial for the resolution of inflammation. However, in synovitis, neutrophil apoptosis is delayed with a result of extended survival and persistent inflammation (Wright et al., 2014). […] To determine the critical role of neutrophils in AIA, \ neutralizing antibody (1A8) specific for Ly6G was used to deplete neutrophils in vivo. […] Thus, neutrophils accumulation mediated by TH-cell-derived GM-CSF are important for AIA development.

neutrophils [2] = test: In vitro neutrophil transmigration assay; details: as chemoattractant; 3 h
Experimental: as §2, §3

Substance: GM-CSF: granulocyte macrophage colony-stimulating factor (ImmunoTools) given intraarticularly or added to cell cultures
- IL-1β mRNA expression in synovial fibroblasts (synovial fibroblasts; 20 ng/ml, 1 h): increased IL-1β mRNA expression
- TNF-α expression in synovial fibroblasts (synovial fibroblasts; data not shown): not observed
- mRNA expression of IL-6 and IL-1β in BMDMs (BMDMs; 20 ng/ml, 1 h): quickly upregulated
- secretion of IL-6 from BMDMs (BMDMs; 18 h, ELISA): markedly increased
- secretion of IL-1β from BMDMs (BMDMs; LPS priming 6 h, then ATP 30 min, ELISA): significantly enhanced
- TNF-α expression in BMDMs (BMDMs; data not shown): not observed
- mRNA expression of IL-6 and IL-1β in BMDCs (BMDCs; 20 ng/ml, 1 h): quickly upregulated
- secretion of IL-6 from BMDCs (BMDCs; 18 h, ELISA): markedly increased
- TNF-α expression in BMDCs (BMDCs; data not shown): not observed
- neutrophil apoptosis (neutrophils [1]): profound efficacy in delaying neutrophil apoptosis
- neutrophil adhesion and migration across monolayers of endothelial cells (neutrophils [2]): significantly enhanced

— patent US10690666B2, “Methods and compositions for modulating TH-GM cell function” (National University of Singapore, priority 2014, dated 2020)
